Patent US8026359B2, “Fungicidal heterocyclic amines” (E.I. du Pont de Nemours and Company, priority 2007, dated 2011)

Experiments:
Assay type in all cases: in vivo
[1] = test system: Erysiphe graminis f. sp. tritici; test: Test A: wheat powdery mildew, preventive spray on wheat seedlings; conditions: 200 ppm, 100 = 100% disease control, 0 = no control relative to controls
Summary of the method: (§1)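 Preventive foliar spray to run-off on seedlings at 200 ppm (≈500 g/ha) or 40 ppm. Test suspension: acetone at 3% of final volume, then acetone/purified water 50/50 containing 250 ppm Trem® 014.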

[2] = test system: Phytophthora infestans; conditions: 200 ppm; 100 = 100% disease control, 0 = no control relative to controls
[3] = test system: Plasmopara viticola; test: Test L: grape downy mildew, spray after inoculation of grape seedlings; conditions: 200 ppm; 100 = 100% disease control, 0 = no control relative to controls
Description: General protocol for preparing test suspensions for Tests A-R: The test compounds were first dissolved in acetone in an amount equal to 3% of the final volume and then suspended at the desired concentration (in ppm) in acetone and purified water (50/50 mix) containing 250 ppm of the surfactant Trem® 014 (polyhydric alcohol esters). The resulting test suspensions were then used in tests A-R. In Tests A-M, compounds were sprayed as a 200 ppm test suspension (equivalent to a rate of 500 g/ha) or as a 40 ppm test suspension to the point of runoff on the test plants. In Tests N-R, compounds were sprayed as a 100 g/ha test suspension (equivalent to a rate of 100 ppm) on the test plants at an application volume of 1000 L/ha. Grape seedlings were inoculated with a spore suspension of Plasmopara viticola (the causal agent of grape downy mildew) and incubated in a saturated atmosphere at 20° C. for 24 h. After a short drying period, the test suspension was sprayed to the point of run-off on the grape seedlings and then moved to a growth chamber at 20° C. for 6 days, after which time the test units were placed back into a saturated atmosphere at 20° C. for 24 h. Upon removal, disease ratings were made.

[4] = test system: Rhizoctonia oryzae; test: Test J: turf brown patch, preventive spray on creeping bent grass seedlings; conditions: 200 ppm; 100 = 100% disease control, 0 = no control relative to controls
Description: (§2) General protocol for preparing test suspensions for Tests A-R: The test compounds were first dissolved in acetone in an amount equal to 3% of the final volume and then suspended at the desired concentration (in ppm) in acetone and purified water (50/50 mix) containing 250 ppm of the surfactant Trem® 014 (polyhydric alcohol esters). The resulting test suspensions were then used in tests A-R. In Tests A-M, compounds were sprayed as a 200 ppm test suspension (equivalent to a rate of 500 g/ha) or as a 40 ppm test suspension to the point of runoff on the test plants. In Tests N-R, compounds were sprayed as a 100 g/ha test suspension (equivalent to a rate of 100 ppm) on the test plants at an application volume of 1000 L/ha. The test suspension was sprayed to the point of run-off on creeping bent grass seedlings.

[5] = test system: Colletotrichum orbiculare; test: Test I: cucumber Colletotrichum anthracnose, preventive spray on cucumber seedlings; conditions: 100 = 100% disease control, 0 = no control relative to controls; for Test I disease control rating: 200 ppm
Summary of the method: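 Preventive foliar spray to run-off on cucumber seedlings, at 200 ppm (stated as equal to 500 g/ha) or 40 ppm. Test suspensions were made in acetone/water 50/50 containing 250 ppm Trem 014, after first dissolving compound in acetone at 3% of final volume.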

[6] = test system: Pythium aphanidermatum; test: Test M: bluegrass pythium blight, preventive spray on bluegrass seedlings; conditions: 200 ppm; 100 = 100% disease control, 0 = no control relative to controls
Description: as §2, with “bluegrass” for “creeping bent grass”

[7] = test system: Fusarium graminearum; test: whole plant or invertebrate; conditions: for Test E disease control rating: 200 ppm, 100 = 100% disease control, 0 = no control relative to controls
[8] = test system: Botrytis cinerea; test: Test F: tomato Botrytis, preventive spray on tomato seedlings; conditions: 200 ppm, 100 = 100% disease control, 0 = no control relative to controls
Summary of the method: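 Preventive run-off spray onto tomato seedlings at 200 ppm (equivalent to 500 g/ha) or 40 ppm. Suspensions: compound predissolved in acetone at 3% of final volume, then taken up in acetone/purified water 50/50 containing 250 ppm Trem® 014 surfactant.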

[9] = test system: Puccinia recondita f. sp. tritici; test: Test B: wheat leaf rust, preventive spray on wheat seedlings; conditions: 200 ppm, 100 = 100% disease control, 0 = no control relative to controls
Summary of the method: as §1

[10] = test system: Septoria nodorum; test: Test C: wheat glume blotch, preventive spray on wheat seedlings; conditions: 200 ppm, 100 = 100% disease control, 0 = no control relative to controls
Summary of the method: as §1

SMILES | Test A disease control rating [1] [%] | Test K disease control rating [2] [%] | Test L disease control rating [3] [%] | Test J disease control rating [4] [%] | Test I disease control rating [5] [%] | Test M disease control rating [6] [%] | Test E disease control rating [7] [%] | Test F disease control rating [8] [%] | Test B disease control rating [9] [%] | Test C disease control rating [10] [%] | pest or weed control at 200 ppm ([1]; Blumeria graminis, 192 h, read-out: Test A disease control rating) [%] | pest or weed control at 200 ppm ([5]; Colletotrichum orbiculare, 144 h, read-out: Test I disease control rating) [%] | pest or weed control at 200 ppm ([7]; Fusarium graminearum, in Triticum aestivum, 192 h, read-out: Test E disease control rating) [%] | pest or weed control at 200 ppm ([8]; Botrytis cinerea, 120 h, read-out: Test F disease control rating) [%] | pest or weed control at 200 ppm ([9]; Puccinia recondita, 192 h, read-out: Test B disease control rating) [%] | pest or weed control at 200 ppm ([10]; Parastagonospora nodorum, 216 h, read-out: Test C disease control rating) [%]
COCC(C)Nc1nccc(-c2ccnc(Nc3ccc(F)cc3F)c2)n1 (centres unmarked) [Compound 47] | 0 | 0 | 0 | 0 | 40 | 0 | 92 | 0 | 85 | 0 |  |  |  |  |  | 
COCC(C)Nc1nccc(-c2ccnc(Nc3cccc(C)c3)c2)n1 (centres unmarked) [Compound 51] | 88 | 0 | 0 | 0 | 92 | 0 | 48 | 99 | 99 | 98 |  |  |  |  |  | 
COCC(C)Nc1nccc(-c2ccnc(Nc3c(F)cccc3F)c2)n1 (centres unmarked) [Compound 49] | 86 | 0 | 0 | 0 | 67 | 0 | 81 | 90 | 99 | 92 |  |  |  |  |  | 
CC(C)(C)Nc1nccc(-c2ccnc(Nc3cccc(F)c3)c2)n1 [Compound 45] | 77 | 0 | 0 | 0 | 8 | 0 | 90 | 20 | 79 | 98 |  |  |  |  |  | 
COCC(C)Nc1nccc(-c2ccnc(Nc3ccccc3)c2)n1 (centres unmarked) [Compound 43] | 29 | 0 | 0 | 9 | 90 | 0 | 100 | 92 | 99 | 99 |  |  |  |  |  | 
CC(CO)Nc1nccc(-c2ccnc(Nc3cccc(F)c3)c2)n1 (centres unmarked) [Compound 48] | 0 | 0 | 0 | 0 | 26 | 0 | 0 | 15 | 99 | 87 |  |  |  |  |  | 
COCC(C)Nc1cc(-c2ccnc(Nc3cccc(Cl)c3)n2)ncn1 (centres unmarked) [Compound 105, N^2-(3-chlorophenyl)-N^6′-(2-methoxy-1-methylethyl) [4,4′-bipyrimidine]-2,6′-diamine] |  | 0 | 0 | 0 |  | 0 |  |  |  |  | 0 | 0 | 73 | 78 | 97 | 92
COCC(C)Nc1nccc(-c2ccnc(Nc3cccc([N+](=O)[O-])c3)c2)n1 (centres unmarked) [Compound 44] | 0 | 0 | 0 | 0 | 40 | 0 | 99 | 0 | 89 | 98 |  |  |  |  |  | 
COCC(C)Nc1cc(-c2ccnc(Nc3ccccc3)n2)ncn1 (centres unmarked) [Compound 108] | 0 | 0 | 0 | 0 | 0 | 0 | 98 | 38 | 80 | 0 |  |  |  |  |  | 
COCC(C)Nc1nccc(-c2ccnc(Nc3cccc(Cl)c3F)c2)n1 (centres unmarked) [Compound 46] | 0 | 0 | 0 | 0 | 0 | 0 | 94 | 7 | 91 | 97 |  |  |  |  |  | 
COCC(C)Nc1nccc(-c2ccnc(Nc3ccc(F)cc3)c2)n1 (centres unmarked) [Compound 50] | 0 | 0 | 0 | 0 | 96 | 0 | 72 | 94 | 99 | 84 |  |  |  |  |  | 
